Values quoted from earlier work as cited in US20260373165A1, “PHARMACEUTICAL COMBINATIONS AND COMPOSITIONS, AND METHODS OF USE THEREOF” (SHENZHEN HIGHTIDE BIOPHARMACEUTICAL LTD., priority 2022, published 2026).

Conditions: after 52 weeks of treatment, lower dose of semaglutide; cited from earlier work

## Cc1ccc([C@@H]2O[C@H](CO)[C@@H](O)[C@H](O)[C@H]2O)cc1Cc1ccc(-c2ccc(F)cc2)s1 [cangliflozin, canagliflozin]
  average decrease in total fat mass: 7.8%
  average decrease in total muscle mass: 2.9%
